“Also recorded” adds a separate entry of the source.

In one series the target is ADPRT (Bos taurus, UniProt P18493). The series is described as follows: Inhibition of ADPRT / binding to ADPRT (I50, Ki). The format is biochemical. From the text: Their biological action spectrum is nearly the same as that of 6-ABP, except that their potency is about 10-50 times greater. Such potency is particularly well documented in case of 5-I-6-ABP against malignant cell proliferation in cell cultures. […] This effectivity is 10-20 times higher than 6-ABP.
The 6-amino group of 5-I-6-ABP is rapidly oxidized intracellularly to 5-I-6-NOBP which, by binding to the Zn^2+ -finger domain of ADPRT, destabilizes the tightly chelated Zn^2+ by the oxidation of the thiol groups in the Zn^2+ finger polypeptide, thus ejecting Zn^2+. In this way, 5-I-6-ABP effectively inactivates the ADPR-forming activity of this protein and converts it to a DNA binding protein that reacts with "internal domains" of certain double stranded DNA (Biochemistry, 28:5670 (1989); Biochem. Biophys. Res. Commun., 167:842 (1990)). These DNA domains include abnormally replicating DNA structures in tumorigenic or proliferative cells and in viral DNAs, probably at the integration sites.

Series [1] has as its system HIV. The series can be described thus: HIV replication by p24 formation (ELISA) in cell culture. In kind it is cell-based. On the technique in general: An ELISA detects its analyte on a solid surface through an enzyme-linked reagent.
Series [2] relates to HIV. The series is described as follows: Cytopathogenic effect of HIV on AA-2 cells. In kind it is cell-based. A general note: Damage to the host cells serves as the signal in cytopathic effect assays.
Series [3] has as its system malignant cell proliferation. The series can be described thus: Malignant cell proliferation / cytostatic activity in cell cultures, overall. In kind it is cell-based. From the text:
In this study, the following cell lines were used. Cell line CG I, a non-tumorigenic hybrid of HeLa cells with normal human fibroblasts, and its is tumorigenic revertant counterpart, CG1 III, as described in Science, 215:252 (1982). These cells were obtained from UC Irvine. […] HEp-2 human epidermoid carcinoma cells were provided by Dr. L. Aurelian (University of Maryland). E-Ras cells were-obtained from University of Cincinnati and represent an endothelial cell line transfected with pSV2neo plasmid as described in Proc. Natl. Acad. Sci., 76:1373 (1979). This cell line contains several copies of the activated human Ha-ras oncogene.
Cells were seeded to 2 cm^2 wells of Falcon tissue culture plates at a density of 6000±650 cells per well. Inhibitors were added to the seeding suspensions from stock solutions of 100 mM 6-ABP in water or 50 mM 5-1-6-ABP in dimethylsulfoxide (DMSO). […] Growth media were Dulbeccos MEM (lines #1 and 2), and Dulbeccols Modified Eagle's Medium, containing 10% fetal bovine serum and penicillin (100 μg/ml) plus streptomycin (100 μg/ml). After incubation for 72 hours at 37° C. in a 5% CO2 humidified atmosphere, incorporation of [^3 H] deoxyadenosine (ICN, 18 Ci/mmol) into DNA was tested as follows: [^3 H] deoxyadenosine (450,000 dpm in 40 μl) of medium was added per well (each containing 600 μl of medium) and incubation at 37° C. was continued for 1 hour, followed by removal of the medium and rinsing of the wells 3 times with phosphate-buffered saline. Cells were then lysed in 500 μl of 0.06M NaOH and the acid precipitable radioactivity was determined.

The test system of series [4] is HIV. The series is described as follows: Inhibition of syncytia formation by HIV in MT-2 cells. The format is cell-based.

ADPRT, sequence (P18493 whole entry, the tested form may be a part): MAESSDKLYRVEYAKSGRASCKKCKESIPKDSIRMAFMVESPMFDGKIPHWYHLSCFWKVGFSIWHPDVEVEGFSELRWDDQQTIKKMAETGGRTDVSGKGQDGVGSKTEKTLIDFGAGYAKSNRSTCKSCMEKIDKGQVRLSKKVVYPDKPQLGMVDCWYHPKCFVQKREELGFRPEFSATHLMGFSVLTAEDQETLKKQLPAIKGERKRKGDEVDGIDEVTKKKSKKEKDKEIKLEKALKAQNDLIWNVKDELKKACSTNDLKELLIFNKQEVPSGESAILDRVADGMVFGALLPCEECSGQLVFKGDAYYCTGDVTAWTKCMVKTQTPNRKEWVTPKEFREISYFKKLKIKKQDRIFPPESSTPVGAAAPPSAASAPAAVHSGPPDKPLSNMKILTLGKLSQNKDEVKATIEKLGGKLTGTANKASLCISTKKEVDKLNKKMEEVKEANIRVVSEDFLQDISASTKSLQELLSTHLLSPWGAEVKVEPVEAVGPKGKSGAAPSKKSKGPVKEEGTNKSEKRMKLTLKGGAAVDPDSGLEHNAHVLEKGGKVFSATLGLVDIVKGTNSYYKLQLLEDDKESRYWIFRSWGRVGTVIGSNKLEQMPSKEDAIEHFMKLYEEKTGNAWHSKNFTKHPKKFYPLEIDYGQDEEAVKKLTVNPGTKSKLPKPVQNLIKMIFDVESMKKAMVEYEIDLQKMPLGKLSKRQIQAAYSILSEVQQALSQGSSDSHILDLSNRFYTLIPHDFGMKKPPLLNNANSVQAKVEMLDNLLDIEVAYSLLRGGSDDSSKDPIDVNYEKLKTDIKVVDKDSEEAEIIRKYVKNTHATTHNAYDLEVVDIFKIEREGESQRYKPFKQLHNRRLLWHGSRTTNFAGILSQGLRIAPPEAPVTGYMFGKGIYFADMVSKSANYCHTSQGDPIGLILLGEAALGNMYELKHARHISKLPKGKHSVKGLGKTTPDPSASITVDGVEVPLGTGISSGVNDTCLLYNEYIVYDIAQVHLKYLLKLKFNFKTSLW

With `Nc1ccc2oc(=O)ccc2c1I` [5-I-6-ABP, 5-iodo-6-amino-1,2-benzopyrone], at ADPRT, the IC50 was 19 µM, the Ki was found to be 2 µM and the “inhibition of / binding to ADPRT” value is given as “potent inhibitor of ADPRT; also recorded: much tighter binding”. In addition, on ADPRT (vs non-iodinated 6-ABP), the “times more potent than 6-ABP (on a concentration basis)” value is “about 10 times”. Further, in the series on HIV [1], the “p24 protein formation, effect relative to 3 mM 6-ABP” value is “nearly as effective” and the “suppressing effect on p24 generation” value is “almost equivalent suppressing effect on p24 generation”. In the series on HIV [2], the “cytopathogenic effect of HIV, effectiveness relative to 6-ABP” value was “nearly as effective”. The “cellular toxicity of cytostatic effect” value in series [3] is “do not involve cellular toxicity”. In series [3] (6 cell lines, Table 1), the “replication of tumorigenic cell types” value is “profoundly inhibited”. For the same compound, the “potency relative to 6-ABP” value in series [3] (biological action spectrum, vs 6-ABP) was 10-50 times. In addition, the “antitumor activity relative to 6-ABP” value in series [3] (vs 6-ABP) is recorded as “at least 10 times”. Besides, in the series on HIV [4], the “inhibition of syncytia formation” value is reported as “complete” and the “inhibition of syncytia formation relative to 3 mM 6-ABP” value is listed as “only slightly less inhibitory”.

Broadly, the IC50 is the point on the concentration scale where inhibition reaches its midpoint. By Ki is commonly meant a measure of affinity in units of concentration, obtained from inhibition or displacement. A high value points to weaker binding.
